Measured values from patent US6323187A, “Therapeutic dinucleotide and derivatives” (priority 1999, dated 2001).

Key:
P2Y2 = biological target: T1, P2Y2 (Homo sapiens, UniProt P41231); experiment: Inositol phosphate assay, P2Y2 receptor; type: cell-based; settings: IA = no agonist activity at 30 μM
T1 construct: expressed in transfected cells
Method: (§1) The pharmaceutical utility of the compounds of this invention is indicated by the inositol phosphate assay for P2Y2 and other P2Y receptor activity. This widely used assay, as described in E. Lazarowski, et al., Brit. J. Pharm. 116, 1619-27 (1995), relies on the measurement of inositol phosphate formation as a measurement of activity of compounds activating receptors linked via G-proteins to phospholipase C.
(§2) The compounds of Formula I was tested for its ability to elicit P2Y1, P2Y2, P2Y4 and P2Y6 receptor activity using the inositol phosphate assay as described by E. Lazarowski, et al., Brit. J. Pharm. 116, 1619-27 (1995).

P2Y1 = experiment: Inositol phosphate assay, P2Y1 receptor; type: cell-based; settings: IA = no agonist activity at 30 μM
Method: as §1, §2

P2Y4 = P2Y4 (Homo sapiens, UniProt P51582); experiment: Inositol phosphate assay, P2Y4 receptor; type: cell-based; settings: IA = no agonist activity at 30 μM
P2Y4, sequence (P51582 whole entry, species assumed): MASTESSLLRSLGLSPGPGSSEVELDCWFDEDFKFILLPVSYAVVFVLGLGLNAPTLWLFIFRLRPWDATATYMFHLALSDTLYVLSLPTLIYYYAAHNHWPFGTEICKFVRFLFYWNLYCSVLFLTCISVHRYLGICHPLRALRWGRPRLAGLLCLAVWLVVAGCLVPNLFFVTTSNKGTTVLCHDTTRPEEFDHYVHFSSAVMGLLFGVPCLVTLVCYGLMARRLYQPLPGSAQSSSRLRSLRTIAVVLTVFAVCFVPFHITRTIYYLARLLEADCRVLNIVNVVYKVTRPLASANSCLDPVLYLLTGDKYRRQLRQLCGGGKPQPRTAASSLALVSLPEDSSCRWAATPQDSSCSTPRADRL
Method: as §1, §2

P2Y6 = experiment: Inositol phosphate assay, P2Y6 receptor; type: cell-based; settings: IA = no agonist activity at 30 μM
Method: as §1, §2

[1] = tested on: human nasal epithelial cells; experiment: Chloride secretion in human nasal airway cells (change in ISC); type: cell-based; settings: more potent than U2 P4; amiloride 100 μM present; apical addition
Method: Airway epithelial cells were desegregated and isolated from freshly excised human nasal surgical specimens (Yankaskas, et al., Am. Rev. Respir. Dis. 132, 1281-1287 (1985)). Confluent monolayers were cultured on permeable collagen matrix supports in F-12 hormone-supplemented medium (Wu, et. al., Am. Rev. Respir. Dis. 132, 311-320 (1985)). Cells were incubated at 37° C. and grown to confluence. Development of transepithelial resistance was monitored to determine the formation of tight junctions between the cells. After formation of tight junctions, was confirmed, the matrix supports containing the cultures were mounted in modified Using chambers. […]
Polycarbonate Using chambers were milled to fit the plastic cups that supported the permeable collagen matrix on which the cells were grown. Bioelectric properties including ISC, transepithelial potential difference and resistance were monitored. Short-circuit current (ISC) was measured with a digital voltmeter (UNC Electronics, Chapel Hill, N.C.) and plotted on a strip-chart recorder. The open circuit potential was recorded periodically, and conductance was monitored in the voltage clamp mode by the current deflection in response to a 10-mV voltage pulse.
A stable baseline of ISC was recorded and amiloride (100 μM) was added to the solution bathing the apical surface to block sodium absorption. […] The change in ISC was recorded. […]

sputum production = settings: normal healthy volunteers; background section; cited from earlier work
in vitro = settings: human, bronchial epithelial cells, pH 7.2
Method: Epithelial cells were grown as monolayers on an airliquid interface in ALI medium. Assays were conducted on fully differentiated cells in KRB-Ringer solution (pH 7.2) at 37° C. with 0.1 mM nucleotide substrate. Aliquots of airway surface liquid were removed at 5, 10, 15, 20, 40 and 60 minutes. The metabolism was stopped by boiling and filtering the aliquots, and the samples were analyzed by high performance liquid chromatography using the following conditions: C- 18 column with a 55 min gradient of 10-100 mM KH2 PO4 and constant 8 mM tetrabutyl ammonium hydrogen sulfate and 10% methanol).

Type II alveolar cells = settings: Gobran (1994); cited from earlier work
cough clearance = settings: patients with PCD; P. Noone, et al. (1996); cited from earlier work
[2] = tested on: lung mucociliary clearance; settings: normal volunteers; K. Olivier, et al. (1996); cited from earlier work
goblet cells = settings: in vitro; M. Lethem, et al. (1993); cited from earlier work
[3] = tested on: human airway epithelial cells; settings: human airway epithelial cells in vitro; D. Drutz, et al. (1996); cited from earlier work
P2Y2 receptor = settings: H. Brown, et al. (1991); cited from earlier work
airway epithelial cells = airway epithelial cells in vitro; S. Mason, et al. (1991); cited from earlier work

T1 sequence (P41231 whole entry): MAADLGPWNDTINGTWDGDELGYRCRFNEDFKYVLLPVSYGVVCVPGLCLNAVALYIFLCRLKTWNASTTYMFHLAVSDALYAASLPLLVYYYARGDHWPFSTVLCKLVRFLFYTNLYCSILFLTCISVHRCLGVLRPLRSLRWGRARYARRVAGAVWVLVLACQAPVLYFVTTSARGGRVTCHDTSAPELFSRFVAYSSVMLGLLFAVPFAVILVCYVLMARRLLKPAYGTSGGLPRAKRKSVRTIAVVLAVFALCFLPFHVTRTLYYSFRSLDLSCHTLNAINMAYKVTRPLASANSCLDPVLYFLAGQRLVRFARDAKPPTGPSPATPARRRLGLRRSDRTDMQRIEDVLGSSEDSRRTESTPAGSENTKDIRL

Row | EC50 (P2Y2) [µM] | EC50 (P2Y1) [µM] | EC50 (P2Y4) [µM] | EC50 (P2Y6) [µM] | metabolised at 1 h, 100 µM (in vitro) [%] | Structure (SMILES) | other results
1 | > 30 | > 30 | > 30 | > 30 |  | Nc1ccn([C@@H]2O[C@H](COP(=O)(O)OP(=O)(O)OP(=O)(O)OP(=O)(O)OC[C@H]3O[C@@H](n4ccc(N)nc4=O)[C@H](O)[C@@H]3O)[C@@H](O)[C@H]2O)c(=O)n1 [C2 P4] | 
2 | 0.45 | > 30 | 0.65 | 3.5 |  | Nc1ccn([C@@H]2O[C@H](COP(=O)(O)OP(=O)(O)OP(=O)(O)OP(=O)(O)OC[C@H]3O[C@@H](n4ccc(=O)[nH]c4=O)[C@H](O)[C@@H]3O)[C@@H](O)[C@H]2O)c(=O)n1 [CP4 U, P^1-(cytidine 5'-)-P^4-(uridine 5'-)-tetraphosphate] | potency relative to U2 P4 in the chloride secretion assay [1]: approximately ten-fold
3 |  |  |  |  | 40 | O=c1ccn([C@@H]2O[C@H](COP(=O)(O)OP(=O)(O)OP(=O)(O)OP(=O)(O)OC[C@H]3O[C@@H](n4ccc(=O)[nH]c4=O)[C@H](O)[C@@H]3O)[C@@H](O)[C@H]2O)c(=O)[nH]1 [U2 P4, P^1,P^4 -Di(uridine 5'-)tetraphosphate] | sputum production (sputum production): increase sputum production
4 |  |  |  |  | 100 | O=c1ccn([C@@H]2O[C@H](COP(=O)(O)OP(=O)(O)OP(=O)(O)O)[C@@H](O)[C@H]2O)c(=O)[nH]1 [UTP, uridine 5'-triphosphate] | release of surfactant from Type II alveolar cells (Type II alveolar cells): release of surfactant; cough clearance (cough clearance): significantly enhances cough clearance; lung mucociliary clearance [2]: improvement in lung mucociliary clearance; side-effects [2]: without any significant side-effects; mucin secretion by goblet cells (goblet cells): increase both the rate and total amount of mucin secretion; cilia beat frequency [3]: increase cilia beat frequency; intracellular Ca^++ (P2Y2 receptor): increase intracellular Ca^++; Cl^- secretion (airway epithelial cells): increase Cl^- secretion
